Laboratory results as given in ChEMBL document CHEMBL1146207, “Gypsophin: a novel alpha-glucosidase inhibitory cyclic peptide from the roots of Gypsophila oldhamiana” (Bioorg Med Chem Lett, 2007).

Molecular target: Sucrase-isomaltase, intestinal (Homo sapiens, UniProt P14410)
Assay: Inhibition of alpha-glucosidase by enzyme inhibition assay

Chain of Sucrase-isomaltase, intestinal (P14410 2-1007 limits assumed): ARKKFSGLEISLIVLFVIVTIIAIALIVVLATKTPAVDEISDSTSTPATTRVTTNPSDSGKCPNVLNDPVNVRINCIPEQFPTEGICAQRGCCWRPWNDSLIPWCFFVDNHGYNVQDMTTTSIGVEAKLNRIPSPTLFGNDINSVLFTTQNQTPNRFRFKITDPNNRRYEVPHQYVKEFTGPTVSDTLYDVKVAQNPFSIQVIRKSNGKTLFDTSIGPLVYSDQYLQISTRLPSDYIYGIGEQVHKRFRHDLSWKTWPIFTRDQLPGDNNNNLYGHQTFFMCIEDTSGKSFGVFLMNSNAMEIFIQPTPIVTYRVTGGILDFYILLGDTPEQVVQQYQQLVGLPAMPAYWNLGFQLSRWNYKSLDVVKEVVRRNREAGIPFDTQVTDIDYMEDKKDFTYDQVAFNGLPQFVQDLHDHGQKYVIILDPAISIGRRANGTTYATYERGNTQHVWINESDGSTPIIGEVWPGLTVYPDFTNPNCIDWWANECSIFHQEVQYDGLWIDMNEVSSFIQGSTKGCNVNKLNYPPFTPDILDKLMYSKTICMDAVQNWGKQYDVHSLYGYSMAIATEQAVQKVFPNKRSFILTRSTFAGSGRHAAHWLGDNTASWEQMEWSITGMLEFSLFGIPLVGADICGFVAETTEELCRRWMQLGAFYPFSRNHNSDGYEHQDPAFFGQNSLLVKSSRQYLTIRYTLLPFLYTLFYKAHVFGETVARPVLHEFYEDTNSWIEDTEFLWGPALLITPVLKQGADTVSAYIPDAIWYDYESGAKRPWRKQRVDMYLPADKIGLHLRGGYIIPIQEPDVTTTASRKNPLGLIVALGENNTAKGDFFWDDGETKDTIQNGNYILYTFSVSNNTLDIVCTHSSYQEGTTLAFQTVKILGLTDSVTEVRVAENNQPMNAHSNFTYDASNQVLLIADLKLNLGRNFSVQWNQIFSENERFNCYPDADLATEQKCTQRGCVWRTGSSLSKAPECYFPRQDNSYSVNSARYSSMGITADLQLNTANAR
Chain of Sucrase-isomaltase, intestinal (P14410 1008-1827 limits assumed): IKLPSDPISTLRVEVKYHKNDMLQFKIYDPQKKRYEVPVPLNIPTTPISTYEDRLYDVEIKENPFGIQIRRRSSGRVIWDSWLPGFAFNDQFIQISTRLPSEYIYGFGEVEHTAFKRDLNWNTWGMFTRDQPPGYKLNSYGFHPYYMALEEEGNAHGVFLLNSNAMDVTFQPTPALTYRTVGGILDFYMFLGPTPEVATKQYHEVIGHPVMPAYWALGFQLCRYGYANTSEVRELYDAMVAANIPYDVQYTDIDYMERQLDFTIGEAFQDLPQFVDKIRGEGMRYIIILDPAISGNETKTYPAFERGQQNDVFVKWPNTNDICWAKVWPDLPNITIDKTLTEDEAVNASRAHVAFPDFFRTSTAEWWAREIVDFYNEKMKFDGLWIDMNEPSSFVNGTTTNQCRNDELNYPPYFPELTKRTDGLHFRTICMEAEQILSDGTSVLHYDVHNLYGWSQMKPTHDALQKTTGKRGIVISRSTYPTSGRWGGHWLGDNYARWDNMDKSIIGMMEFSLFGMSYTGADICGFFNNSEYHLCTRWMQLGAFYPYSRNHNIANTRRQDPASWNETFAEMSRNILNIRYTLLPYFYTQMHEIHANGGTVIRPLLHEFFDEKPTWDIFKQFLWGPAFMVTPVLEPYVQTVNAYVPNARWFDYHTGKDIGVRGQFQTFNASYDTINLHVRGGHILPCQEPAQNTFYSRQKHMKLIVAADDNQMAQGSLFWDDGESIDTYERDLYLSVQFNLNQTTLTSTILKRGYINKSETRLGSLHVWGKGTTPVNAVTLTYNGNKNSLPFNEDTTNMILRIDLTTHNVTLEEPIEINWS

## CC[C@H](C)[C@@H]1NC(=O)[C@H](Cc2ccccc2)N2C(=O)C[C@H](NC(=O)[C@H](Cc3ccccc3)NC(=O)CNC(=O)[C@@H]3CCCN3C(=O)[C@H](CC(C)C)NC1=O)C2=O [GYPSOPHIN]
  IC50: 305 µM
